Earlier results on four compounds are cited in patent US11499155B2, “Dynamin 2 inhibitor for the treatment of centronuclear myopathies” (UNIVERSITE DE STRASBOURG, priority 2013, dated 2022).

Molecules are shown by their SMILES.

The subject of one series is mitochondrial division. To be noted: read-out: IC50 (mitochondrial division inhibitor).
The target in series [1] is receptor-mediated and synaptic vesicle endocytosis. To be noted: read-out: IC50 for inhibition of receptor-mediated and synaptic vesicle endocytosis.

`O=C(NN=Cc1cc(O)c(O)cc1O)c1cc2ccccc2cc1O` [Hydroxy-Dynasore, 3-Hydroxy-N′-[(2,4,5-trihydroxyphenyl)methylidene]naphthalene-2-carbohydrazide]: the IC50 with Dynamin is 2500 nM.
Turning to `COc1cc(-n2c(S)nc3ccccc3c2=O)c(Cl)cc1Cl` [M-divi 1, 3-(2,4-Dichloro-5-methoxyphenyl)-2-sulfanylquinazolin-4(3H)-one], the IC50 in the series on mitochondrial division is 10 µM.
Consider `CCCCCCCCCCCCCC[N+](C)(C)C` [MiTMAB, Tetradecyltrimethylammonium bromide], for which the concentration for half-maximal inhibition (IC50) in series [1] is 2200 nM.
Regarding `CCCCCCCCCCCCCCCCCC[N+](C)(C)CCN1C(=O)C2C3CCC(O3)C2C1=O` (stereo not shown) [RTIL-13, 4-(N,N-Dimethyl-N-octadecyl-N-ethyl)-4-aza-10-oxatricyclo-[5.2.1]decane-3,5-dione bromide], the IC50 with Dynamin was 2300 nM.
